For 32 molecules, IC50 results are on record in US20240336574A1 (LATIGO BIOTHERAPEUTICS, INC., priority 2021, published 2024).

Read-outs that look alike come from different tables or passages of the source.

The test addresses T1, recombinant human NaV1.8 stably transfected HEK cells (Homo sapiens, UniProt Q9Y5Y9).
T1 construct: expressed in transfected cells; host or cells: HEK cells, stably transfected
The test can be described thus: Compound profiling on NaV1.8, human NaV1.8 cell line, SyncroPatch384PE automated patch clamp assay (Example 102, first set of compounds, Table 16). The format is cell-based. Particulars: human NaV1.8 HEK cells, Table 16 (first set of compounds). The gist of the method:
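IC50s come from two read-outs: resting-state block (P1, 10 mV step from −120 mV) and inactivated-state block (P2, after 10 s at −40 mV), scaled between DMSO and 250 μM tetracaine. Compounds (20–0.001 μM final, 1:3 steps) were applied for 5 min, 15 s sweeps. Cells kept at 30 °C the day before.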

The mark [1] stands for this setting: inactivated state block (P2 measurement), read-out: P2IC50.
Where [2] appears, read: resting state block (P1 measurement), read-out: P1IC50.

T1 sequence (Q9Y5Y9 whole entry): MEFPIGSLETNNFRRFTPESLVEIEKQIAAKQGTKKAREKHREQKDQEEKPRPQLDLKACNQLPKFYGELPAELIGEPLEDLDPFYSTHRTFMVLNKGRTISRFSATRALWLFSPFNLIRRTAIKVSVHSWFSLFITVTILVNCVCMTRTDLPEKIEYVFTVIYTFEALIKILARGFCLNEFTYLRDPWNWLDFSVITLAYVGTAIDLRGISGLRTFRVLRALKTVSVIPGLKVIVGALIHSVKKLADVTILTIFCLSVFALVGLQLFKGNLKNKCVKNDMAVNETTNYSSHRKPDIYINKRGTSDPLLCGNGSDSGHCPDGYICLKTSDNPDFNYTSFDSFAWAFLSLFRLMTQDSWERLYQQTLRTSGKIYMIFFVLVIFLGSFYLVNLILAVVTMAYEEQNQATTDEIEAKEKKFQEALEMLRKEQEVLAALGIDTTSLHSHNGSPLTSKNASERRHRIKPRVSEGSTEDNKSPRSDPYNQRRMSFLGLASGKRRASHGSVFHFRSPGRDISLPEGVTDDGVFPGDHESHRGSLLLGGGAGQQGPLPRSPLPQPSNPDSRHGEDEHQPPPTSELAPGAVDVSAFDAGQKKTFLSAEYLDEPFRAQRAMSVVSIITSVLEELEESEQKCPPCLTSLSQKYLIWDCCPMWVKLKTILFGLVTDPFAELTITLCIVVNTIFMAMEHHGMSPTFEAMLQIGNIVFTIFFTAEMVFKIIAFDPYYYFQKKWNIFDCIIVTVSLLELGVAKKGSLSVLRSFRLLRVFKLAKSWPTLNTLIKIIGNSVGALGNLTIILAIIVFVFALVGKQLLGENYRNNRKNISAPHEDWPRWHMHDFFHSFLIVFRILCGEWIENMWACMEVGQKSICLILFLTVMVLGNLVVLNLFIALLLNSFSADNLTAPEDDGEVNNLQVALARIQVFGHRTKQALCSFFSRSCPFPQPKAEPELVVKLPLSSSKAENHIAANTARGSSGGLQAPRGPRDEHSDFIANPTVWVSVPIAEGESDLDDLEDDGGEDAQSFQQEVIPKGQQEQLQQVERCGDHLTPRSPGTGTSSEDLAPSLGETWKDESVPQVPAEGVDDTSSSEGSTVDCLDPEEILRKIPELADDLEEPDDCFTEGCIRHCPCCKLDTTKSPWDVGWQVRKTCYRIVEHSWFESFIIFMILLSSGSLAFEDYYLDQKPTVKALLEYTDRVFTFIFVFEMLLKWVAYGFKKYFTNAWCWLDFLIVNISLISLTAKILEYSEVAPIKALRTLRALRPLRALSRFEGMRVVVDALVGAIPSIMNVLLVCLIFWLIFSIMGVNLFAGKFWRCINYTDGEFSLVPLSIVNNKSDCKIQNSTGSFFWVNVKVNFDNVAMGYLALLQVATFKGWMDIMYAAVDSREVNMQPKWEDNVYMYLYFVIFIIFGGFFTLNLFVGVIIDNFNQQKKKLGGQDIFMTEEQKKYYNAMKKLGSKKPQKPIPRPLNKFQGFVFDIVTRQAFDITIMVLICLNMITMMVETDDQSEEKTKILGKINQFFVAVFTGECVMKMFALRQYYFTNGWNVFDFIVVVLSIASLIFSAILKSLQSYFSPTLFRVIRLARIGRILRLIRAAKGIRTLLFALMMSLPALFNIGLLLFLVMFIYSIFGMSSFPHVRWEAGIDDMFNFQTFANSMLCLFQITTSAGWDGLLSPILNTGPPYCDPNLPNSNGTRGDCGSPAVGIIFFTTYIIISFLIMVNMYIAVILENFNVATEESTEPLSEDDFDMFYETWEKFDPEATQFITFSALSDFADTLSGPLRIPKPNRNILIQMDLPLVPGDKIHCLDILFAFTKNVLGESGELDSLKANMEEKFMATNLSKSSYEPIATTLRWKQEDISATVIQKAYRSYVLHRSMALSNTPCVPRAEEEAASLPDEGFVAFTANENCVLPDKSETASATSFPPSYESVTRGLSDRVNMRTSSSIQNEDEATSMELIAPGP

Take `CS(=O)(=O)c1cccc(NC(=O)c2cc(C(F)(F)F)cnc2Oc2cccn3ccnc23)c1` [Compound 1599]: the IC50 by setting is: under setting [1], 0.2 to 0.5 µM; under setting [2], 0.2 to 0.5 µM. On to `Cc1c(Oc2nnc(C(F)(F)F)c(C)c2C(=O)Nc2cccc(S(C)(=N)=O)c2)ccc(Cl)c1F` (single isomer, unassigned) [Compound 1487, 3-(4-chloro-3-fluoro-2-methyl-phenoxy)-5-methyl-N-[3-(methylsulfonimidoyl)phenyl]-6-(trifluoromethyl)pyridazine-4-carboxamide], for which the IC50 under setting [1] was at most 0.02 µM and the IC50 under setting [2] was at most 0.02 µM. For `COc1cc(F)ccc1Oc1nnc(C(F)(F)F)c(C)c1C(=O)Nc1ccc(C(N)=O)cc1` [Compound 1415], the IC50 under setting [1] is at most 0.02 µM and the IC50 under setting [2] was at most 0.02 µM. On to `COc1ccc(Oc2nnc(C(F)(F)F)c(C)c2C(=O)Nc2cccc(S(C)(=N)=O)c2)c(C)n1` (stereo not drawn) [Compound 1507, N-{3-[imino(methyl)oxo-λ^6-sulfanyl]phenyl}-3-[(6-methoxy-2-methylpyridin-3-yl)oxy]-5-methyl-6-(trifluoromethyl)pyridazine-4-carboxamide], for which the IC50 lay within 0.04 to 0.2 µM under setting [1] and 0.04 to 0.2 µM under setting [2]. In the case of `COc1nc(C#N)ccc1Oc1ncc(C(F)(F)F)cc1C(=O)Nc1cccc([S@](C)(=N)=O)c1` [Compound 1655], the IC50 is at most 0.02 µM under setting [1] and at most 0.02 µM under setting [2]. Take `Cc1nc(F)ccc1Oc1ncc(C(F)(F)F)c(C)c1C(=O)Nc1cccc([S@](C)(=N)=O)c1` [Compound 1559, (R)-2-((6-fluoro-2-methylpyridin-3-yl)oxy)-4-methyl-N-(3-(S-methylsulfonimidoyl)phenyl)-5-(trifluoromethyl)nicotinamide]: the IC50 was at most 0.02 µM under setting [1] and at most 0.02 µM under setting [2]. Turning to `Cc1ccc(Oc2ncc(C(F)(F)F)cc2C(=O)Nc2cccc(C(N)=O)c2)c(OC(F)F)n1` [Compound 1691], the IC50 is 0.04 to 0.2 µM under setting [1] and 0.04 to 0.2 µM under setting [2]. For `COc1c(Oc2nnc(C(F)(F)F)c(C)c2C(=O)Nc2ccn3nnnc3c2)ccc(F)c1F` [Compound 1551, 3-(3,4-difluoro-2-methoxy-phenoxy)-5-methyl-N-(tetrazolo[1,5-a]pyridin-7-yl)-6-(trifluoromethyl)pyridazine-4-carboxamide], the IC50 was at most 0.02 µM under setting [1] and at most 0.02 µM under setting [2]. Take `COc1cc(C#N)ccc1Oc1nnc(C(F)(F)F)c(C)c1C(=O)Nc1cccnc1` [Compound 1543, 3-(4-cyano-2-methoxy-phenoxy)-5-methyl-N-(3-pyridyl)-6-(trifluoromethyl)pyridazine-4-carboxamide]: the IC50 by setting is: under setting [1], 0.04 to 0.2 µM; under setting [2], 0.04 to 0.2 µM. In the case of `N#CC1CC(Oc2ncc(C(F)(F)F)cc2C(=O)Nc2cccc(C(N)=O)c2)C1` (mixture of isomers) [Compound 1668], the IC50 lay within 0.2 to 0.5 µM under setting [1] and 0.2 to 0.5 µM under setting [2]. In the case of `CS(=O)(=O)c1cccc(NC(=O)c2cc(C(F)(F)F)cnc2Oc2ccc(C#N)nc2)c1` [Compound 1703], the IC50 was in the range of 0.2 to 0.5 µM under setting [1] and 0.2 to 0.5 µM under setting [2]. Consider `COc1cc(C#N)ccc1Oc1ncc(C(F)(F)F)cc1C(=O)Nc1cccc(S(N)(=O)=O)c1` [Compound 1561, 2-(4-cyano-2-methoxyphenoxy)-N-(3-sulfamoylphenyl)-5-(trifluoromethyl)pyridine-3-carboxamide], for which the IC50 was at most 0.02 µM under setting [1] and at most 0.02 µM under setting [2].

With `Cc1c(C#N)ccc(Oc2ncc(C(F)(F)F)cc2C(=O)Nc2cccc(C(N)=O)c2)c1F` [Compound 1697], the IC50 is, setting by setting: under setting [1], 0.02 to 0.04 µM; under setting [2], 0.02 to 0.04 µM. Consider `Cc1nc(F)ccc1Oc1ncc(C(F)(F)F)cc1C(=O)Nc1cccc([S@@](C)(=N)=O)c1` (single isomer, unassigned) [Compound 1594], for which the IC50 under setting [1] lay within 0.04 to 0.2 µM and the IC50 under setting [2] lay in the range of 0.04 to 0.2 µM. Turning to `COc1cc(C#N)ccc1Oc1nnc(-c2ccc(C)cn2)c(C)c1C(=O)Nc1cccc(S(C)(=N)=O)c1` (stereo not drawn) [Compound 1464, 3-(4-cyano-2-methoxy-phenoxy)-5-methyl-6-(5-methyl-2-pyridyl)-N-[3-(methylsulfonimidoyl)phenyl]pyridazine-4-carboxamide], the IC50 by setting is: under setting [1], 0.2 to 0.5 µM; under setting [2], 0.2 to 0.5 µM. `COc1cc(C#N)ccc1Oc1nnc(-c2ccc(C(F)F)cc2)c(C)c1C(=O)Nc1cccc([S@@](C)(=N)=O)c1` [Compound 1533, 3-(4-cyano-2-methoxyphenoxy)-6-[4-(difluoromethyl)phenyl]-N-{3-[(S)-imino(methyl)oxo-λ^6-sulfanyl]phenyl}-5-methylpyridazine-4-carboxamide]: the IC50 by setting is: under setting [1], 0.02 to 0.04 µM; under setting [2], 0.02 to 0.04 µM. `COc1cc(C#N)ccc1Oc1nnc(C(F)(F)F)c(C)c1C(=O)Nc1cccc(S(C)(=O)=O)c1` [Compound 4]: the IC50 runs as follows: under setting [1], at most 0.02 µM; under setting [2], at most 0.02 µM. With `CS(=N)(=O)c1cccc(NC(=O)c2cc(C(F)(F)F)cnc2Oc2ccc(-n3ccnc3)cc2)c1` (stereo not drawn) [Compound 1586], the IC50 is 0.2 to 0.5 µM under setting [1] and 0.2 to 0.5 µM under setting [2].

For the molecule `COc1c(Oc2nccc(C(F)(F)F)c2C(=O)Nc2cccc(S(C)(=N)=O)c2)ccc(F)c1F` (stereo not drawn) [Compound 1651], the IC50 under setting [1] is at most 0.02 µM and the IC50 under setting [2] was at most 0.02 µM. For `Cc1c(C(F)(F)F)nnc(Oc2ccc(OC3CCC3)c(F)c2F)c1C(=O)Nc1cccc(S(C)(=N)=O)c1` (stereo not drawn) [Compound 1492, 3-[4-(cyclobutoxy)-2,3-difluoro-phenoxy]-5-methyl-N-[3-(methylsulfonimidoyl)phenyl]-6-(trifluoromethyl)pyridazine-4-carboxamide], the IC50 is at most 0.02 µM under setting [1] and at most 0.02 µM under setting [2]. Turning to `COc1ccc(Oc2nnc(C(F)(F)F)c(C)c2C(=O)Nc2cccc(S(C)(=N)=O)c2)c(C)c1F` (single isomer, unassigned) [Compound 1505, 3-(3-fluoro-4-methoxy-2-methylphenoxy)-N-{3-[imino(methyl)oxo-λ^6-sulfanyl]phenyl}-5-methyl-6-(trifluoromethyl)pyridazine-4-carboxamide], the IC50 was at most 0.02 µM under setting [1] and at most 0.02 µM under setting [2].

In the case of `COc1cc(C#N)ccc1Oc1nnc(-c2ccccc2F)c(C)c1C(=O)Nc1cccc([S@](C)(=N)=O)c1` [Compound 1537, 3-(4-cyano-2-methoxyphenoxy)-6-(2-fluorophenyl)-N-{3-[(R)-imino(methyl)oxo-λ^6-sulfanyl]phenyl}-5-methylpyridazine-4-carboxamide], the IC50 under setting [1] is 0.02 to 0.04 µM and the IC50 under setting [2] fell in the range of 0.02 to 0.04 µM.

In the case of `COc1c(Oc2nnc(C(F)(F)F)c(C)c2C(=O)Nc2cccc(C(N)=O)c2)ccc(F)c1F` [Compound 1549, N-(3-carbamoylphenyl)-3-(3,4-difluoro-2-methoxy-phenoxy)-5-methyl-6-(trifluoromethyl)pyridazine-4-carboxamide], the IC50 is, setting by setting: under setting [1], at most 0.02 µM; under setting [2], at most 0.02 µM. On to `COc1c(Oc2nnc(C(F)(F)F)c(C)c2C(=O)Nc2cccc(S(C)(=N)=O)c2)ccc(F)c1F` (single isomer, unassigned) [Compound 1473, 3-(3,4-difluoro-2-methoxy-phenoxy)-5-methyl-N-[3-(methylsulfonimidoyl)phenyl]-6-(trifluoromethyl)pyridazine-4-carboxamide], for which the IC50 under setting [1] is at most 0.02 µM and the IC50 under setting [2] is at most 0.02 µM.

Turning to `Cc1nc(F)ccc1Oc1ncc(C(F)(F)F)cc1C(=O)Nc1cccc([S@](C)(=N)=O)c1` (single isomer, unassigned) [Compound 1593], the IC50 was at most 0.02 µM under setting [1] and at most 0.02 µM under setting [2]. On to `CS(=O)(=O)c1cccc(NC(=O)c2cc(C(F)(F)F)cnc2Oc2ccc(OC(F)F)cc2)c1` [Compound 1563, 2-[4-(difluoromethoxy)phenoxy]-N-(3-methylsulfonylphenyl)-5-(trifluoromethyl)pyridine-3-carboxamide], for which the IC50 reads like this: under setting [1], 0.02 to 0.04 µM; under setting [2], 0.02 to 0.04 µM. In the case of `Cc1nc(C#N)ccc1Oc1ncc(C(F)(F)F)cc1C(=O)Nc1cccc(S(C)(=N)=O)c1` (stereo not drawn) [Compound 1701], the IC50 by setting is: under setting [1], 0.02 to 0.04 µM; under setting [2], 0.02 to 0.04 µM. Consider `Cc1ccc(Oc2nnc(C(F)(F)F)c(C)c2C(=O)Nc2cccc(S(C)(=N)=O)c2)c(C)n1` (single isomer, unassigned) [Compound 1485, 3-[(2,6-dimethylpyridin-3-yl)oxy]-N-{3-[imino(methyl)oxo-λ^6-sulfanyl]phenyl}-5-methyl-6-(trifluoromethyl)pyridazine-4-carboxamide], for which the IC50 under setting [2] lay in the range of 0.2 to 0.5 µM. For `COc1cc(C#N)ccc1Oc1nnc(C(F)(F)F)c(C)c1C(=O)Nc1cccc(C(=O)NC2CCCC2C#N)c1` (stereo not drawn) [Compound 1445, N-[3-[(2-cyanocyclopentyl)carbamoyl]phenyl]-3-(4-cyano-2-methoxy-phenoxy)-5-methyl-6-(trifluoromethyl)pyridazine-4-carboxamide], the IC50 runs as follows: under setting [1], 0.2 to 0.5 µM; under setting [2], 0.2 to 0.5 µM.

As to `CC(C)(O)c1ccc(Oc2ncc(C(F)(F)F)cc2C(=O)Nc2cccc(S(C)(=O)=O)c2)c(F)c1` [Compound 1664], the IC50 was 0.2 to 0.5 µM under setting [1] and 0.2 to 0.5 µM under setting [2]. Regarding `COc1cc(C#N)ccc1Oc1nnc(-c2ccc(C)nc2)c(C)c1C(=O)Nc1cccc(S(C)(=N)=O)c1` (stereo not drawn) [Compound 1455, 3-(4-cyano-2-methoxy-phenoxy)-5-methyl-6-(6-methyl-3-pyridyl)-N-[3-(methylsulfonimidoyl)phenyl]pyridazine-4-carboxamide], the IC50 reads like this: under setting [1], 0.2 to 0.5 µM; under setting [2], 0.2 to 0.5 µM. Regarding `COc1cc(C#N)ccc1Oc1nnc(C(F)(F)F)c(C)c1C(=O)Nc1cccc(C#N)c1` [Compound 1548, 3-(4-cyano-2-methoxy-phenoxy)-N-(3-cyanophenyl)-5-methyl-6-(trifluoromethyl)pyridazine-4-carboxamide], the IC50 by setting is: under setting [1], 0.02 to 0.04 µM; under setting [2], 0.02 to 0.04 µM.
